Source: patent US8778437B2, “Taste improving substances” (Givaudan Nederland Services B.V., priority 2004, dated 2014)

Tested on: panel
Assay: Panel comparison of carbonated lemonade with and without test substance (Example 3)
Assay type: in vivo
Conditions: 0.03 wt.% of spray dried sample of Example 2 in carbonated lemonade (10% sugar, 1200 ppm citric acid, 100 ppm ascorbic acid, pH 3)
Protocol: A basic carbonated lemonade containing 10% sugar, 1200 ppm citric acid and 100 ppm ascorbic acid, was prepared. The pH of the lemonade was 3. This was used as the control. To the test lemonade the spray dried sample described in Example 2 was added in an amount of 0.03 wt. %. The two lemonades were compared by a panel.

CC(O)C(=O)NCCOP(=O)(O)O (stereo not shown) [N-lactoyl-ethanolaminie-phosphate, N-Lactoyl ethanolamine phosphate]
taste description of lemonade compared with control: more acidic, more natural, more juicy, more complex
